Columns and labels:
Test in all cases: KINOMEscan competition binding
Settings in all cases: compound 10.0 µM
[1] = biological target: TNK1 (human) (UniProt Q13470)
[2] = biological target: CSK (human) (UniProt P41240)
[3] = biological target: LTK (human) (UniProt P29376)
[4] = system: EGFR (human), P00533 [747-751 del / S ins]
[5] = biological target: CDC2L2 (human) (UniProt Q9UQ88)
[6] = system: EGFR (human), P00533 [T790M]
[7] = biological target: CDK15 (human) (UniProt Q96Q40)
[8] = biological target: CAMK2D (human) (UniProt Q13557)
[9] = biological target: CSNK2A1 (human) (UniProt P68400)
[10] = biological target: CDK19 (human) (UniProt Q9BWU1)
[11] = biological target: FLT1 (human) (UniProt P17948)
[12] = biological target: ERBB2 (human) (UniProt P04626)
[13] = biological target: PKMYT1 (human) (UniProt Q99640)
[14] = biological target: INSRR (human) (UniProt P14616)
[15] = biological target: DAPK1 (human) (UniProt P53355)
[16] = biological target: PRKCE (human) (UniProt Q02156)
[17] = biological target: MAP3K1 (human) (UniProt Q13233)
[18] = biological target: MUSK (human) (UniProt O15146)
[19] = biological target: INSR (human) (UniProt P06213)
[20] = biological target: TXK (human) (UniProt P42681)
[21] = biological target: SRMS (human) (UniProt Q9H3Y6)
[22] = biological target: JAK3 JH1 catalytic (human) (UniProt P52333)
[23] = biological target: LATS1 (human) (UniProt O95835)
[24] = biological target: EPHA3 (human) (UniProt P29320)
[25] = biological target: RPS6KA5 KD1 (human) (UniProt O75582)
[26] = biological target: TLK1 (human) (UniProt Q9UKI8)
[27] = biological target: SIK2 (human) (UniProt Q9H0K1)
[28] = system: FLT3 (human), P36888 [R834Q]
[29] = biological target: LIMK2 (human) (UniProt P53671)
[30] = biological target: MAP3K6 (human) (UniProt O95382)
[31] = biological target: PRKCD (human) (UniProt Q05655)
[32] = biological target: MAP2K6 (human) (UniProt P52564)
[33] = biological target: MAST1 (human) (UniProt Q9Y2H9)
[34] = biological target: RPS6KA2 KD2 (human) (UniProt Q15349)

Sequence of CDC2L2 (human) (Q9UQ88 whole entry, looked up): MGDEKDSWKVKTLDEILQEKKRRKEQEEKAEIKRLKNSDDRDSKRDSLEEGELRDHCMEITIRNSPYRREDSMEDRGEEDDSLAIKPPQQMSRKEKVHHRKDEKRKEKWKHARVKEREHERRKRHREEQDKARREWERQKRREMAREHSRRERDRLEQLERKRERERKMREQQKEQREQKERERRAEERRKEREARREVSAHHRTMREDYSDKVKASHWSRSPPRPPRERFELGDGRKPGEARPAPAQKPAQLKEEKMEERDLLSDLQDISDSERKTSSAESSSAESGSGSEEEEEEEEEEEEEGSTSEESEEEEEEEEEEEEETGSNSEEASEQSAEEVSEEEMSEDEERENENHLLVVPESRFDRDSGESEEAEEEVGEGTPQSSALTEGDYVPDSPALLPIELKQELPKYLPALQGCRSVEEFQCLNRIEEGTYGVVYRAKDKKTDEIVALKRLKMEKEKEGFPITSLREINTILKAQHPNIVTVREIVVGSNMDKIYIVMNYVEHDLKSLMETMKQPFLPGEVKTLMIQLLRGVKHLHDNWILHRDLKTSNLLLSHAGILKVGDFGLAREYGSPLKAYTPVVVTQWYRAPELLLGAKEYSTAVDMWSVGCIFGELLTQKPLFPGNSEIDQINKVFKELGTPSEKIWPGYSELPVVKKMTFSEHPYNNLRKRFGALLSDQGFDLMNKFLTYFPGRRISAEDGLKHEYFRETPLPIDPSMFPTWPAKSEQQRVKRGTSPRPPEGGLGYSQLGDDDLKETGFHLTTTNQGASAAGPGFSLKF
Sequence of CDK15 (human) (Q96Q40 whole entry, looked up): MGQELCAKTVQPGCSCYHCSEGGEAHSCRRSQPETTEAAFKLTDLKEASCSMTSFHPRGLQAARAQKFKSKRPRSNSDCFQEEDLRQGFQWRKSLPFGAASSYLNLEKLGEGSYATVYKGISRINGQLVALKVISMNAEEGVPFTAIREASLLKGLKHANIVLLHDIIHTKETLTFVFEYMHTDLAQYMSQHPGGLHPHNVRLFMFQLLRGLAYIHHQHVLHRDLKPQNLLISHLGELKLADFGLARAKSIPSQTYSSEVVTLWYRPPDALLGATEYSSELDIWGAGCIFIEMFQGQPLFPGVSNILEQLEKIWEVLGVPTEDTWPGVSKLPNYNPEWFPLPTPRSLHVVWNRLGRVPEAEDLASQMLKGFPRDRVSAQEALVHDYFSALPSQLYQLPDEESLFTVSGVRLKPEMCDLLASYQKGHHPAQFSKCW
Sequence of TXK (human) (P42681 whole entry, looked up): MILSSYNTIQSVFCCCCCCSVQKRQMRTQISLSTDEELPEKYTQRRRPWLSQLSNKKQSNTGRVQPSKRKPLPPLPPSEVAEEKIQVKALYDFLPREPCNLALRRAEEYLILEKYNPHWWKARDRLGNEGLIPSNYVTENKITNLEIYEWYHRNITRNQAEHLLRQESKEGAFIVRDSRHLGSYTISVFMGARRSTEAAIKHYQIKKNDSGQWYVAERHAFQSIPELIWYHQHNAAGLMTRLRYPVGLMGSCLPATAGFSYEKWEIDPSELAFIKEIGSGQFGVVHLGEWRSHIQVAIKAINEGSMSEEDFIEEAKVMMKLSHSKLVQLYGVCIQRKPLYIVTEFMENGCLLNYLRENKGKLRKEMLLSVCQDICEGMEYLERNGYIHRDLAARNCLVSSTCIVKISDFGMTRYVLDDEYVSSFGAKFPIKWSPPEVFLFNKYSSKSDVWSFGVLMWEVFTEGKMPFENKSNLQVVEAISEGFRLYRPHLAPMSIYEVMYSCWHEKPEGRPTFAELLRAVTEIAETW
Sequence of INSRR (human) (P14616 whole entry, looked up): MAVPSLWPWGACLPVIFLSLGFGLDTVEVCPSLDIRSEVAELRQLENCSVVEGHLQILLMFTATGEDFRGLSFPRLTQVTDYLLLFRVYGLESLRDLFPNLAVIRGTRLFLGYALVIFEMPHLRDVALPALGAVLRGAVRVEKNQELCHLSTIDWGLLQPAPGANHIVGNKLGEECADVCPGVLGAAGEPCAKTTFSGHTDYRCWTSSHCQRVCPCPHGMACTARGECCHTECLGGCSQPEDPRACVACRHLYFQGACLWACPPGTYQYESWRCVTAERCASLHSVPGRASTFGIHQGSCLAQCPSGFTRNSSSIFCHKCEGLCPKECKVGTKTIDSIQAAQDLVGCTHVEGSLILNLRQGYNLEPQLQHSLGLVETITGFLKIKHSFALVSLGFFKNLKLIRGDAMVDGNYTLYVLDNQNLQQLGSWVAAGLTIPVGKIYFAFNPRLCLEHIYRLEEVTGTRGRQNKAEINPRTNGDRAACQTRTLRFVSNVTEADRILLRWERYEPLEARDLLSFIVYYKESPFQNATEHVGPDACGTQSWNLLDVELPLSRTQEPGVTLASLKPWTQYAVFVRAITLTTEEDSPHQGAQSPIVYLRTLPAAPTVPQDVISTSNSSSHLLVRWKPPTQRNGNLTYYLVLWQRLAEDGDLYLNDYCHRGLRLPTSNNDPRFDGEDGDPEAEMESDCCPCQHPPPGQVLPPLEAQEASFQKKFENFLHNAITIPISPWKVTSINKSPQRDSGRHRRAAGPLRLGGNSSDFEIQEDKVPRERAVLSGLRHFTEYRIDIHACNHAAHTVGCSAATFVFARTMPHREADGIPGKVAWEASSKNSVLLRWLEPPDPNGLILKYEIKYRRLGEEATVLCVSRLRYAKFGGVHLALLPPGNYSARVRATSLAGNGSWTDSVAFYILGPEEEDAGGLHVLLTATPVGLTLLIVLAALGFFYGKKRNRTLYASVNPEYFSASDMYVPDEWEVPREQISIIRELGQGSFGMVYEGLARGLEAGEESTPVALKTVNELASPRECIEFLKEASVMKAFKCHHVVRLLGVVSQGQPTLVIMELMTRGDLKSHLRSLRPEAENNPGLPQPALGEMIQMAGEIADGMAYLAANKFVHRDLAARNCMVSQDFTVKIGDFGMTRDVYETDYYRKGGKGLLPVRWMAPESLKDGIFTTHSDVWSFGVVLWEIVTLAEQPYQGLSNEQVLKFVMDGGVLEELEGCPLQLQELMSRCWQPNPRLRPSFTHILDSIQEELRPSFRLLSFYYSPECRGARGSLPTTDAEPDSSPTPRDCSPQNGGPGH
Sequence of CAMK2D (human) (Q13557 whole entry, looked up): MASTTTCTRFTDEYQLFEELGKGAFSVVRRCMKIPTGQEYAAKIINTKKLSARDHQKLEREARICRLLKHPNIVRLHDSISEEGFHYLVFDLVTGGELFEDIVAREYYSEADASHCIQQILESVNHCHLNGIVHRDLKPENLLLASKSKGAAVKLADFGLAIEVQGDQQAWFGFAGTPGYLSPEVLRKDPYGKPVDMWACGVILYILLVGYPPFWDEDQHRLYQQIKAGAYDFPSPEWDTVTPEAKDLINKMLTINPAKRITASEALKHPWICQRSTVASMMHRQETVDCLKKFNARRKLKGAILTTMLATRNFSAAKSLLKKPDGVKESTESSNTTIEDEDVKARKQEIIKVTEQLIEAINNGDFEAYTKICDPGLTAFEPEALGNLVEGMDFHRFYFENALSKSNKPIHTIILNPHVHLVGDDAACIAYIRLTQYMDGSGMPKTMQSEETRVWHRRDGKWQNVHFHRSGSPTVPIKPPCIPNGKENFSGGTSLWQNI
Sequence of RPS6KA5 KD1 (human) (O75582 whole entry, looked up): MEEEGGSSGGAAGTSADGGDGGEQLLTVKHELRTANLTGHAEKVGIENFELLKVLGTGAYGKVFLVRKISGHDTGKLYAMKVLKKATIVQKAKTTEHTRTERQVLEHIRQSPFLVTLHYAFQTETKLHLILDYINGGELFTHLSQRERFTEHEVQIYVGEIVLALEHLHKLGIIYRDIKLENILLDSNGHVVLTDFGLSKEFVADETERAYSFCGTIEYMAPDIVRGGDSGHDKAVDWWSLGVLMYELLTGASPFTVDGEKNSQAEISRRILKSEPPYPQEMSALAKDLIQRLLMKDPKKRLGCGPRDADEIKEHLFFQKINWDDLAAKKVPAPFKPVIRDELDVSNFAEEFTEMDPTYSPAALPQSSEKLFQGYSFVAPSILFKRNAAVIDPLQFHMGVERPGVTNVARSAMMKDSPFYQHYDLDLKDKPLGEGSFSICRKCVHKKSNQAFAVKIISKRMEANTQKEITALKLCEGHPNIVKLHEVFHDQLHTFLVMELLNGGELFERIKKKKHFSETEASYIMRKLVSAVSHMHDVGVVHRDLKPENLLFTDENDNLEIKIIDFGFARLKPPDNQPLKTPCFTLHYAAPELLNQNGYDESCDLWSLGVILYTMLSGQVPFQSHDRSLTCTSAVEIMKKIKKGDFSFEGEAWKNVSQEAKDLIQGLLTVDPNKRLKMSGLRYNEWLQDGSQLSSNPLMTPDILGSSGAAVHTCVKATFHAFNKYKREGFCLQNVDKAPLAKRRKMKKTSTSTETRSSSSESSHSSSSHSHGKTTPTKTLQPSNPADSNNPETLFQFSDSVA
Sequence of SRMS (human) (Q9H3Y6 whole entry, looked up): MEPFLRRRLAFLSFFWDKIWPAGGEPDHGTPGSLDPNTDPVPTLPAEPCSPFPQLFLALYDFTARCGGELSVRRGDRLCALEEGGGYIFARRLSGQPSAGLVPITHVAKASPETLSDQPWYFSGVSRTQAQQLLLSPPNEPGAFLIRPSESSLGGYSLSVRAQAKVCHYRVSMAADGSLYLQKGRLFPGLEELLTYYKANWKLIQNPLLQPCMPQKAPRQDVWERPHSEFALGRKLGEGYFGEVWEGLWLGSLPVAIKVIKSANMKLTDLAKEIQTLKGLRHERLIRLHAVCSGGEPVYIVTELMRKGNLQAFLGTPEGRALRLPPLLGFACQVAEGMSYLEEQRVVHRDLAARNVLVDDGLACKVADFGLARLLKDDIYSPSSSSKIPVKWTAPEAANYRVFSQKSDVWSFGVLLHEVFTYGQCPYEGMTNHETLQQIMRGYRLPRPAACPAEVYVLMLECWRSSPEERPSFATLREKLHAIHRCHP

SMILES | kinase still bound, per cent of control [1] [%] | kinase still bound, per cent of control [2] [%] | kinase still bound, per cent of control [3] [%] | kinase still bound, per cent of control [4] [%] | kinase still bound, per cent of control [5] [%] | kinase still bound, per cent of control [6] [%] | kinase still bound, per cent of control [7] [%] | kinase still bound, per cent of control [8] [%] | kinase still bound, per cent of control [9] [%] | kinase still bound, per cent of control [10] [%] | kinase still bound, per cent of control [11] [%] | kinase still bound, per cent of control [12] [%] | kinase still bound, per cent of control [13] [%] | kinase still bound, per cent of control [14] [%] | kinase still bound, per cent of control [15] [%] | kinase still bound, per cent of control [16] [%] | kinase still bound, per cent of control [17] [%] | kinase still bound, per cent of control [18] [%] | kinase still bound, per cent of control [19] [%] | kinase still bound, per cent of control [20] [%] | further results
COc1ccc(N(C(=O)Oc2c(C)cccc2C)c2ccnc(Nc3ccc(N4CCN(C)CC4)cc3)n2)c(OC)c1 | 0 | 2.5 | 1.2 | 0 | 42 | 2.2 | 94 | 100 | 66 | 100 | 11 | 15 | 100 | 100 | 73 | 27 | 32 | 43 | 100 | 0.45 | kinase still bound, per cent of control [21]: 8.6%; kinase still bound, per cent of control [22]: 0.25%; kinase still bound, per cent of control [23]: 78%; kinase still bound, per cent of control [24]: 9.4%; kinase still bound, per cent of control [25]: 100%; kinase still bound, per cent of control [26]: 45%; kinase still bound, per cent of control [27]: 7.6%; kinase still bound, per cent of control [28]: 26%; kinase still bound, per cent of control [29]: 0%; kinase still bound, per cent of control [30]: 93%; kinase still bound, per cent of control [31]: 9.8%; kinase still bound, per cent of control [32]: 66%; kinase still bound, per cent of control [33]: 100%; kinase still bound, per cent of control [34]: 78%
O=C(Nc1cccc(Nc2ncc(Br)c(NCCc3cnc[nH]3)n2)c1)N1CCCC1 | 1.4 | 24 | 66 | 67 | 52 | 2 | 25 | 46 | 0.3 | 100 | 0.6 | 88 | 100 | 4.8 | 1.2 | 0 | 34 | 9.4 | 27 | 17 | kinase still bound, per cent of control [21]: 37%; kinase still bound, per cent of control [22]: 0%; kinase still bound, per cent of control [23]: 21%; kinase still bound, per cent of control [24]: 21%; kinase still bound, per cent of control [25]: 57%; kinase still bound, per cent of control [26]: 37%; kinase still bound, per cent of control [27]: 8%; kinase still bound, per cent of control [28]: 7%; kinase still bound, per cent of control [29]: 59%; kinase still bound, per cent of control [30]: 49%; kinase still bound, per cent of control [31]: 12%; kinase still bound, per cent of control [32]: 22%; kinase still bound, per cent of control [33]: 58%; kinase still bound, per cent of control [34]: 4.8%
